We go through one compound from BindingDB's records for doi:10.1021/jm00068a006 (Merck Research Laboratories, 1993).

The experiment deals with T1, Dimer of Gag-Pol polyprotein [489-587] (Human immunodeficiency virus 1, UniProt P12497).
T1 construct: 489-587
Put plainly: Protease Inhibition Assay. To be noted: pH 5.5; 30 °C.

The IC50 is the concentration at which inhibition is half-maximal. High values mean weaker potency in that assay, low ones greater potency in that assay. For `CC(C)(C)NC(=O)[C@@H]1C[C@@H]2CCCC[C@@H]2CN1C[C@@H](O)[C@H](Cc1ccccc1)NC(=O)[C@@H](NC(=O)c1ccc2ccccc2n1)[C@H]1CCOC1` [(3S,4aS,8aS)-N-tert-butyl-2-[(2R,3S)-2-hydroxy-3-[(2S)-2-[(3R)-oxolan-3-yl]-2-(quinolin-2-ylformamido)acetamido]-4-phenylbutyl]-decahydroisoquinoline-3-carboxamide], the half-maximal inhibitory concentration (IC50) came to 0.054 nM.
